According to ChEMBL document CHEMBL1142867, “Antiviral activity of triazine analogues of 1-(S)-[3-hydroxy-2-(phosphonomethoxy)propyl]cytosine (cidofovir) and related compounds” (J Med Chem, 2007):
Values after ≈ are worked out from the molar mass of the structure shown.

What was measured:
[1] = Cytotoxicity against CEM cells assessed as reduction of cell growth; type: cell-based; settings: human, CEM (CCRF-CEM) cells
[2] = Cytotoxicity against C3H cells assessed as alteration in cell morphology; type: cell-based; settings: mouse
Human betaherpesvirus 5 [3] = type: functional, organism-based; settings: Human betaherpesvirus 5, Davis, HEL
Yellow fever virus = type: functional, organism-based; settings: Vero
Human adenovirus 2 = type: functional, organism-based; settings: Human mastadenovirus C, HEL
[4] = Cytotoxicity against Vero cells assessed as alteration in cell morphology; type: cell-based; settings: chlorocebus sabaeus
Coxsackievirus B4 [5] = type: functional, organism-based; settings: Enterovirus B, HeLa
Human alphaherpesvirus 1 [6] = type: functional, organism-based; settings: Human alphaherpesvirus 1, KOS, HEL
HEL = assay: Cytotoxicity against HEL cells assessed as inhibition of cell growth after 3 days; type: cell-based; settings: human, 72 h
[7] = Cytotoxicity against E6SM cells assessed as alteration in cell morphology; type: cell-based; settings: human
Vaccinia virus = type: functional, organism-based; settings: Orthopoxvirus vaccinia, Lederle, HEL
Human alphaherpesvirus 3 [8] = assay: Antiviral activity against VZV OKA in HEL cells assessed as inhibition of plaque formation; type: functional, organism-based; settings: Human alphaherpesvirus 3, OKA
[9] = system: Moloney murine sarcoma virus; assay: Antiviral activity against MSV in mouse C3H cells assessed as inhibition of virus-induced transformation after 6 days; type: functional, organism-based; settings: 144 h
Human alphaherpesvirus 3 [10] = assay: Antiviral activity against TK- VZV 07-1 in HEL cells assessed as inhibition of plaque formation; type: functional, organism-based; settings: Human alphaherpesvirus 3, 07-1, HEL
[11] = Cytotoxicity against HEL cells assessed as alteration in cell morphology after 3 days; type: cell-based; settings: human, read-out: Activity
[12] = system: Human immunodeficiency virus 2; type: functional, organism-based; settings: Human immunodeficiency virus 2, ROD, CCRF-CEM
[13] = Cytotoxicity against Huh5-2 cells assessed as reduction of cell growth; type: cell-based, Huh-5-2; settings: human
Human alphaherpesvirus 1 [14] = type: functional, organism-based; settings: Human alphaherpesvirus 1, KOS, HEL; remark: listed apart in the source
Human alphaherpesvirus 2 [15] = type: functional, organism-based; settings: Human alphaherpesvirus 2, G, HEL
[16] = system: Human immunodeficiency virus 1; type: functional, organism-based; settings: Human immunodeficiency virus 1, 3B, CCRF-CEM
Punta Toro virus = type: functional, organism-based; settings: Vero
[17] = Cytotoxicity against HeLa cells assessed as alteration in cell morphology; type: cell-based; settings: human
[18] = system: Respiratory syncytial virus; type: functional, organism-based; settings: human respiratory syncytial virus, Long, HeLa
Sindbis virus = type: functional, organism-based; settings: Vero
[19] = system: Vesicular stomatitis virus; assay: microbe, parasite or virus in culture; settings: E6SM
[20] = system: Mammalian orthoreovirus 1; type: functional, organism-based; settings: Mammalian orthoreovirus 1, Vero
[21] = system: Vesicular stomatitis virus; assay: microbe, parasite or virus in culture; settings: HeLa
Human betaherpesvirus 5 [22] = type: functional, organism-based; settings: Human betaherpesvirus 5, AD169, HEL
Coxsackievirus B4 [23] = type: functional, organism-based; settings: Enterovirus B, Vero
[24] = Cytotoxicity against HSB2 cells assessed as alteration in cell morphology; type: cell-based, CCRF-HSB-2; settings: human, read-out: Activity
Human respirovirus 3 = type: functional, organism-based; settings: Human respirovirus 3, Vero
Human alphaherpesvirus 2 [25] = type: functional, organism-based; settings: Human alphaherpesvirus 2, Lyons, HEL
Hepatitis C virus = assay: Antiviral activity against HCV in Huh5-2 cells assessed as inhibition of HCV subgenomic replicon replication; type: functional, organism-based, Hepacivirus hominis; settings: Huh-5-2

Row | SMILES | CC50 [1] [µg/mL] | MCC [2] [µg/mL] | EC50 (Human betaherpesvirus 5 [3]) [µg/mL] | MCC [4] [µg/mL] | EC50 (Coxsackievirus B4 [5]) [µg/mL] | EC50 (Human alphaherpesvirus 1 [6]) [µg/mL] | Activity (HEL) | MCC [7] [µg/mL] | EC50 (Vaccinia virus) [µg/mL] | EC50 (Human alphaherpesvirus 3 [8]) [µg/mL] | EC50 [9] [µg/mL] | MCC at 72 h [11] [µg/mL] | EC50 [12] [µg/mL] | EC50 (Human alphaherpesvirus 1 [14]) [µg/mL] | EC50 (Human alphaherpesvirus 2 [15]) [µg/mL] | EC50 [16] [µg/mL] | EC50 (Punta Toro virus) [µg/mL] | MCC [17] [µg/mL] | EC50 [18] [µg/mL] | EC50 (Sindbis virus) [µg/mL] | other results
1 | NC(N)=NC(=O)NC[C@@H](CO)OCP(=O)(O)O | > 100 | > 100 | 36.8 (≈ 136 µM) | > 100 | > 100 | > 50 | > 50 µg/mL | > 100 | > 100 | > 50 | 68 (≈ 252 µM) | > 50 | > 100 | > 50 | > 50 | > 100 | > 100 | > 100 | > 100 | > 100 | EC50 (Yellow fever virus): > 100 µg/mL; EC50 (Human adenovirus 2): > 100 µg/mL; EC50 (Human alphaherpesvirus 3 [10]): > 50 µg/mL; CC50 [13]: > 50 µg/mL; EC50 [19]: > 100 µg/mL; EC50 [20]: > 100 µg/mL; EC50 [21]: > 100 µg/mL; EC50 (Human betaherpesvirus 5 [22]): 35.5 µg/mL (≈ 131 µM); EC50 (Coxsackievirus B4 [23]): > 100 µg/mL; MCC [24]: > 200 µg/mL; EC50 (Human respirovirus 3): > 100 µg/mL; EC50 (Human alphaherpesvirus 2 [25]): > 50 µg/mL
2 | Nc1ncn(C[C@@H](CO)OCP(=O)(O)O)c(=O)n1 | 28 (≈ 99.9 µM) | 20 | 0.054 (≈ 0.193 µM) | 400 | > 400 | 0.077 (≈ 0.275 µM) | >= 140 ug ml-1 | > 400 | 2.56 (≈ 9.14 µM) | 0.027 (≈ 0.0964 µM) | 22 (≈ 78.5 µM) | > 50 | > 100 | 0.24 (≈ 0.857 µM) | 0.35 (≈ 1.25 µM) | > 100 | > 80 | > 400 | > 400 | > 80 | EC50 (Yellow fever virus): > 100 µg/mL; EC50 (Human alphaherpesvirus 3 [10]): 0.019 µg/mL (≈ 0.0678 µM); CC50 [13]: > 50 µg/mL; EC50 [19]: > 400 µg/mL; EC50 [20]: > 80 µg/mL; EC50 (Hepatitis C virus): > 50 µg/mL; EC50 [21]: > 400 µg/mL; EC50 (Human betaherpesvirus 5 [22]): 0.078 µg/mL (≈ 0.278 µM); EC50 (Coxsackievirus B4 [23]): > 80 µg/mL; MCC [24]: 16 µg/mL; EC50 (Human respirovirus 3): > 80 µg/mL; EC50 (Human alphaherpesvirus 2 [25]): 0.25 µg/mL (≈ 0.892 µM)
3 | Nc1ncn(C[C@H](O)CO)c(=O)n1 | > 100 | > 100 | > 100 | > 100 | > 100 | > 100 | > 100 µg/mL | > 100 | > 100 | > 100 | > 100 | > 100 | > 100 | > 100 | > 100 | > 100 | > 100 | > 100 | > 100 | > 100 | EC50 (Human alphaherpesvirus 3 [10]): > 100 µg/mL; EC50 [19]: > 100 µg/mL; EC50 [20]: > 100 µg/mL; EC50 [21]: > 100 µg/mL; EC50 (Human betaherpesvirus 5 [22]): > 100 µg/mL; EC50 (Coxsackievirus B4 [23]): > 100 µg/mL; EC50 (Human respirovirus 3): > 100 µg/mL; EC50 (Human alphaherpesvirus 2 [25]): > 100 µg/mL
4 | Nc1ncn(CCOCP(=O)(O)O)c(=O)n1 | 96 (≈ 384 µM) | 200 | 37 (≈ 148 µM) | 400 | > 80 | 9.9 (≈ 39.6 µM) | > 50 µg/mL | 400 | > 100 | 25 (≈ 99.9 µM) | 7.5 (≈ 30 µM) | > 100 | > 100 | 17 (≈ 68 µM) | 25.8 (≈ 103 µM) | > 100 | > 80 | 400 | > 80 | > 80 | EC50 (Yellow fever virus): > 100 µg/mL; EC50 (Human alphaherpesvirus 3 [10]): 10 µg/mL (≈ 40 µM); CC50 [13]: > 50 µg/mL; EC50 [19]: > 80 µg/mL; EC50 [20]: > 80 µg/mL; EC50 (Hepatitis C virus): > 50 µg/mL; EC50 [21]: > 80 µg/mL; EC50 (Human betaherpesvirus 5 [22]): 49 µg/mL (≈ 196 µM); EC50 (Coxsackievirus B4 [23]): > 80 µg/mL; EC50 (Human respirovirus 3): > 80 µg/mL; EC50 (Human alphaherpesvirus 2 [25]): 39.3 µg/mL (≈ 157 µM)
5 | NC(=NC(=O)NC[C@@H](CO)OCP(=O)(O)O)NC=O | ≥ 100 | > 100 | 0.12 (≈ 0.402 µM) | > 100 | > 100 | 1.35 (≈ 4.53 µM) | > 50 µg/mL | > 100 | 8.35 (≈ 28 µM) | 0.042 (≈ 0.141 µM) | 130 (≈ 436 µM) | > 50 | > 100 | 2.85 (≈ 9.56 µM) | 6.58 (≈ 22.1 µM) | > 100 | > 100 | > 100 | > 100 | > 100 | EC50 (Human adenovirus 2): 17.8 µg/mL (≈ 59.7 µM); EC50 (Human alphaherpesvirus 3 [10]): 0.046 µg/mL (≈ 0.154 µM); EC50 [19]: > 100 µg/mL; EC50 [20]: > 100 µg/mL; EC50 [21]: > 100 µg/mL; EC50 (Human betaherpesvirus 5 [22]): 0.1 µg/mL (≈ 0.335 µM); EC50 (Coxsackievirus B4 [23]): > 100 µg/mL; MCC [24]: ≥ 200 µg/mL; EC50 (Human respirovirus 3): > 100 µg/mL; EC50 (Human alphaherpesvirus 2 [25]): 3.16 µg/mL (≈ 10.6 µM)
6 | Nc1cnn(C[C@@H](CO)OCP(=O)(O)O)c(=O)n1 | > 100 | 100 | 37.3 (≈ 133 µM) | 400 | > 400 | 8.84 (≈ 31.6 µM) | > 50 µg/mL | > 400 | 63.1 (≈ 225 µM) | 38.2 (≈ 136 µM) | 170 (≈ 607 µM) | > 100 | > 100 | 24.9 (≈ 88.9 µM) | 31.5 (≈ 112 µM) | > 100 | > 80 | > 400 | > 400 | > 80 | EC50 (Yellow fever virus): > 100 µg/mL; EC50 (Human adenovirus 2): > 100 µg/mL; EC50 (Human alphaherpesvirus 3 [10]): 18.4 µg/mL (≈ 65.7 µM); CC50 [13]: 111 µg/mL (≈ 396 µM); EC50 [19]: > 400 µg/mL; EC50 [20]: > 80 µg/mL; EC50 (Hepatitis C virus): 750 µg/mL (≈ 2680 µM); EC50 [21]: > 400 µg/mL; EC50 (Human betaherpesvirus 5 [22]): 30 µg/mL (≈ 107 µM); EC50 (Coxsackievirus B4 [23]): > 80 µg/mL; EC50 (Human respirovirus 3): > 80 µg/mL; EC50 (Human alphaherpesvirus 2 [25]): ≥ 43.4 µg/mL
7 | Nc1ncn(C[C@H](CO)OCP(=O)(O)O)c(=O)n1 | > 100 | > 100 | 8.9 (≈ 31.8 µM) | > 200 | > 200 | 11.8 (≈ 42.1 µM) | > 100 µg/mL | > 200 | ≥ 81.6 | 13.8 (≈ 49.3 µM) | > 100 | > 100 | > 100 | 17.8 (≈ 63.5 µM) | 12.6 (≈ 45 µM) | > 100 | > 200 | > 200 | > 200 | > 200 | CC50 [13]: > 50 µg/mL; EC50 [19]: > 200 µg/mL; EC50 [20]: > 200 µg/mL; EC50 [21]: > 200 µg/mL; EC50 (Human betaherpesvirus 5 [22]): 7.3 µg/mL (≈ 26.1 µM); EC50 (Coxsackievirus B4 [23]): > 200 µg/mL; EC50 (Human respirovirus 3): > 200 µg/mL; EC50 (Human alphaherpesvirus 2 [25]): 14.8 µg/mL (≈ 52.8 µM)
